According to patent publication US11981658B2, “Substituted aminopyridine compounds as EGFR inhibitors” (YUHAN CORPORATION, priority 2021, dated 2024):
Where two headings read alike, the source gives them in different places.

Key:
[1] = biological target: EGFR L858R/T790M/C797S (Homo sapiens, UniProt P00533, C797S/L858R/T790M); experiment: Biochemical EGFR kinase inhibition assay (Lance Ultra TR-FRET), triple mutant L858R/T790M/C797S
Procedure, shortened: (§1)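 In this biochemical assay, phosphorylation after a one-hour room-temperature reaction was detected with europium-labelled anti-phosphopeptide antibody at 2 nM final concentration.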

[2] = biological target: EGFR Del19/T790M/C797S (Homo sapiens, UniProt P00533, C797S/DEL746-750/T790M); experiment: Biochemical EGFR kinase inhibition assay (Lance Ultra TR-FRET), triple mutant del19/T790M/C797S
Procedure, shortened: as §1

[3] = biological target: EGFR Del19/C797S (Homo sapiens, UniProt P00533, C797S/DEL746-750); experiment: Biochemical EGFR kinase inhibition assay (Lance Ultra TR-FRET), double mutant del19/C797S
Procedure, shortened: as §1

[4] = biological target: EGFR wildtype (WT) (Homo sapiens, UniProt P00533); experiment: Biochemical EGFR kinase inhibition assay (Lance Ultra TR-FRET), wildtype
Procedure, shortened: as §1

[5] = biological target: EGFR L858R/C797S (Homo sapiens, UniProt P00533, C797S/L858R); experiment: Biochemical EGFR kinase inhibition assay (Lance Ultra TR-FRET), double mutant L858R/C797S
Procedure, shortened: as §1

[6] = IC50 L858R/T790M/C797S (nM), 100 μM ATP
[7] = IC50 Del19/T790M/C797S (nM), 100 μM ATP
[8] = IC50 Del19/C797S (nM), 100 μM ATP
[9] = IC50 L858R/C797S (nM), 100 μM ATP
[10] = Km ATP, read-out: IC50 L858R/T790M/C797S (nM) Km ATP
[11] = Km ATP, read-out: IC50 Del19/T790M/C797S (nM) Km ATP
[12] = Km ATP, read-out: IC50 Del19/C797S (nM) Km ATP
[13] = Km ATP, read-out: IC50 WT (nM) Km ATP
[14] = Km ATP, read-out: IC50 L858R/C797S (nM) Km ATP
[15] = Km ATP, read-out: IC50 L858R/T790M/C797S (nM), Km ATP
[16] = Km ATP, read-out: IC50 Del19/T790M/C797S (nM), Km ATP
[17] = Km ATP, read-out: IC50 Del19/C797S (nM), Km ATP
[18] = Km ATP, read-out: IC50 WT (nM), Km ATP
[19] = Km ATP, read-out: IC50 L858R/C797S (nM), Km ATP

EGFR Del19/T790M/C797S, sequence (P00533 with tags, fused parts or gaps DEL746-750/T790M/C797S): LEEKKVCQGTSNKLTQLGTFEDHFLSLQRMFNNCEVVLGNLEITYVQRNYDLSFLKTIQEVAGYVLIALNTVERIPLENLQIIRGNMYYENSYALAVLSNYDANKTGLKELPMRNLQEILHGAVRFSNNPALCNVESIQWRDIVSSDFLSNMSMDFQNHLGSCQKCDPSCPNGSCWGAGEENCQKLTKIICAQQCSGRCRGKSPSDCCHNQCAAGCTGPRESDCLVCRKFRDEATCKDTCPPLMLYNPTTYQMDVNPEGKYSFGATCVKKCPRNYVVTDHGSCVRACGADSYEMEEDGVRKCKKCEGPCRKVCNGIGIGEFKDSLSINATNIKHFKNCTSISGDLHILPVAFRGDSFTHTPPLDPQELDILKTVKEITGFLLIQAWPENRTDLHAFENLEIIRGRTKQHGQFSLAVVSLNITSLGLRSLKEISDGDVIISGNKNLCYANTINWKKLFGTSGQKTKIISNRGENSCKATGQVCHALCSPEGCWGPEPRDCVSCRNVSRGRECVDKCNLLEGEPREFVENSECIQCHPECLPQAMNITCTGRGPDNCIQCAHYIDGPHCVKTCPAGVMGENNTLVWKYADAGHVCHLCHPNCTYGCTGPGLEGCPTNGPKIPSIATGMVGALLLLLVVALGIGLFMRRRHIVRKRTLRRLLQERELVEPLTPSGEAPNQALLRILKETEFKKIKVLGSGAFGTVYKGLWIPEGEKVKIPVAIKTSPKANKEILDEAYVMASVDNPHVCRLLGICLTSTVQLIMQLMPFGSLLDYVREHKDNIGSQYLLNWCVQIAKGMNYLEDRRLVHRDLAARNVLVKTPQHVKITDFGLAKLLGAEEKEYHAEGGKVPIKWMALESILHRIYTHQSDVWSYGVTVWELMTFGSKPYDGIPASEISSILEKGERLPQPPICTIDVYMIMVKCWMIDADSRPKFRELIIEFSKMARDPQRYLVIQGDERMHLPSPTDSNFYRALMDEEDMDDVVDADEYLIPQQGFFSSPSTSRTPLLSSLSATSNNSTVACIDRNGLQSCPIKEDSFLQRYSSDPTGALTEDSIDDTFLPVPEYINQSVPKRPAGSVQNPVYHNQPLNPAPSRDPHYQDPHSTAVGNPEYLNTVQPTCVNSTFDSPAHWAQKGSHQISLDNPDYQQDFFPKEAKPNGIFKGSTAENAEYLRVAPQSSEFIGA
EGFR Del19/C797S, sequence (P00533 with tags, fused parts or gaps DEL746-750/C797S): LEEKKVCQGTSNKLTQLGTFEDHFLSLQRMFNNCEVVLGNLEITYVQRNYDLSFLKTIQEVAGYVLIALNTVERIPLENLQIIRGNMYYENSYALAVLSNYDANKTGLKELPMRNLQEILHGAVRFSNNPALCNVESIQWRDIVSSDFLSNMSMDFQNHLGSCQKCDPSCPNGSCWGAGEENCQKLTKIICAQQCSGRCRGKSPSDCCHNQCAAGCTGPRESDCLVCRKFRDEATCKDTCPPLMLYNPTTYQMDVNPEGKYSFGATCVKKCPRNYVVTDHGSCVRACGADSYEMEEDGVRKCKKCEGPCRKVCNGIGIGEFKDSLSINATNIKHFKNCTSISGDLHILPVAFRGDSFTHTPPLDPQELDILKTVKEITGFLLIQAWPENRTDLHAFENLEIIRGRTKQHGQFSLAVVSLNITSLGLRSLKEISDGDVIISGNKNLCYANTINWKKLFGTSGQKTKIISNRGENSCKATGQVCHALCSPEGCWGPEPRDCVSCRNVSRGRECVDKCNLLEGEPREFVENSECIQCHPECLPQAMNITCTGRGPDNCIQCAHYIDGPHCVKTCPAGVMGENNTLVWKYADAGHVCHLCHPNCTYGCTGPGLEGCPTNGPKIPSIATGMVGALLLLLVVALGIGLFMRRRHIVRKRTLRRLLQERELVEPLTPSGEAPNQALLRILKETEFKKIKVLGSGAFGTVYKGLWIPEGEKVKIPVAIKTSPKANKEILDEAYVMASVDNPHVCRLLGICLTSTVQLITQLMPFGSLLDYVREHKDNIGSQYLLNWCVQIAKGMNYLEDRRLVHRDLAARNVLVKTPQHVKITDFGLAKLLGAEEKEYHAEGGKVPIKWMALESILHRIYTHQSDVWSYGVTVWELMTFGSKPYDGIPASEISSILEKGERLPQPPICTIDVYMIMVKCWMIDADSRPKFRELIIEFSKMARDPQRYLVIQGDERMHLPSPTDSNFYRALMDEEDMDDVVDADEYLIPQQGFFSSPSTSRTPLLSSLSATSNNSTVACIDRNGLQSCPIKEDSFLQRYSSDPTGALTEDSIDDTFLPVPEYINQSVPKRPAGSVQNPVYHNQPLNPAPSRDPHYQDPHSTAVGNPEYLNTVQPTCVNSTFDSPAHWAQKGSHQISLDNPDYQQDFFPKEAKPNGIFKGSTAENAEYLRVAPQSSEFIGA
EGFR wildtype (WT), sequence (P00533 25-1210): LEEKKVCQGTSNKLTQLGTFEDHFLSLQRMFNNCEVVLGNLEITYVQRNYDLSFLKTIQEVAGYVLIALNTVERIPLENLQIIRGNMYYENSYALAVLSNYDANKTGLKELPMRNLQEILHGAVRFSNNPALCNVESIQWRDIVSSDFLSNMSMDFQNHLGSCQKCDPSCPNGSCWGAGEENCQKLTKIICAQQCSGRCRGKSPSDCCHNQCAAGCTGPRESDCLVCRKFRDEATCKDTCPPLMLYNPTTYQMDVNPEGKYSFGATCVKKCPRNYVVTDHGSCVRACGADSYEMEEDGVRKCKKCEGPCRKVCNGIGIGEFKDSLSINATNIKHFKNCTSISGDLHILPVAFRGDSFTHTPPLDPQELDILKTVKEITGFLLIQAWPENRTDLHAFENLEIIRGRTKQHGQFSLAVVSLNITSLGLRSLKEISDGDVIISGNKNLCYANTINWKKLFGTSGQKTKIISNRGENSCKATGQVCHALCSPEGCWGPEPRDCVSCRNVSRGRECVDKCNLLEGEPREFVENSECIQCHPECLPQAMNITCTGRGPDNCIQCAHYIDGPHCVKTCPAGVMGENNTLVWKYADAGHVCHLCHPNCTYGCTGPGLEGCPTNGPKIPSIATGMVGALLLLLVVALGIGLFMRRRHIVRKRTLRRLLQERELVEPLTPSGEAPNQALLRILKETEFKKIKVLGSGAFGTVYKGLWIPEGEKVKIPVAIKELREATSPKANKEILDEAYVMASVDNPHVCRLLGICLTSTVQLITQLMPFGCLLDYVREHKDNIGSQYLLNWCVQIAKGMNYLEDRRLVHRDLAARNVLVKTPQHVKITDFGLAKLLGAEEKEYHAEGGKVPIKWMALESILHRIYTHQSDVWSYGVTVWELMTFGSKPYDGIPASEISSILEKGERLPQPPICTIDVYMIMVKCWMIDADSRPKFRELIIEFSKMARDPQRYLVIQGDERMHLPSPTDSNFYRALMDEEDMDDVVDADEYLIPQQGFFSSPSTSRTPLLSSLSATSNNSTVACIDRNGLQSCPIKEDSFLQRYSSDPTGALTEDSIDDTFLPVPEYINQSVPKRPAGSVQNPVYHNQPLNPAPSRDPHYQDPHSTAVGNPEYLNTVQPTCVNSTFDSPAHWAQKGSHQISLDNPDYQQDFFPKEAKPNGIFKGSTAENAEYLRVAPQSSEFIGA
EGFR L858R/T790M/C797S, sequence (P00533 25-1210 T790M/C797S/L858R): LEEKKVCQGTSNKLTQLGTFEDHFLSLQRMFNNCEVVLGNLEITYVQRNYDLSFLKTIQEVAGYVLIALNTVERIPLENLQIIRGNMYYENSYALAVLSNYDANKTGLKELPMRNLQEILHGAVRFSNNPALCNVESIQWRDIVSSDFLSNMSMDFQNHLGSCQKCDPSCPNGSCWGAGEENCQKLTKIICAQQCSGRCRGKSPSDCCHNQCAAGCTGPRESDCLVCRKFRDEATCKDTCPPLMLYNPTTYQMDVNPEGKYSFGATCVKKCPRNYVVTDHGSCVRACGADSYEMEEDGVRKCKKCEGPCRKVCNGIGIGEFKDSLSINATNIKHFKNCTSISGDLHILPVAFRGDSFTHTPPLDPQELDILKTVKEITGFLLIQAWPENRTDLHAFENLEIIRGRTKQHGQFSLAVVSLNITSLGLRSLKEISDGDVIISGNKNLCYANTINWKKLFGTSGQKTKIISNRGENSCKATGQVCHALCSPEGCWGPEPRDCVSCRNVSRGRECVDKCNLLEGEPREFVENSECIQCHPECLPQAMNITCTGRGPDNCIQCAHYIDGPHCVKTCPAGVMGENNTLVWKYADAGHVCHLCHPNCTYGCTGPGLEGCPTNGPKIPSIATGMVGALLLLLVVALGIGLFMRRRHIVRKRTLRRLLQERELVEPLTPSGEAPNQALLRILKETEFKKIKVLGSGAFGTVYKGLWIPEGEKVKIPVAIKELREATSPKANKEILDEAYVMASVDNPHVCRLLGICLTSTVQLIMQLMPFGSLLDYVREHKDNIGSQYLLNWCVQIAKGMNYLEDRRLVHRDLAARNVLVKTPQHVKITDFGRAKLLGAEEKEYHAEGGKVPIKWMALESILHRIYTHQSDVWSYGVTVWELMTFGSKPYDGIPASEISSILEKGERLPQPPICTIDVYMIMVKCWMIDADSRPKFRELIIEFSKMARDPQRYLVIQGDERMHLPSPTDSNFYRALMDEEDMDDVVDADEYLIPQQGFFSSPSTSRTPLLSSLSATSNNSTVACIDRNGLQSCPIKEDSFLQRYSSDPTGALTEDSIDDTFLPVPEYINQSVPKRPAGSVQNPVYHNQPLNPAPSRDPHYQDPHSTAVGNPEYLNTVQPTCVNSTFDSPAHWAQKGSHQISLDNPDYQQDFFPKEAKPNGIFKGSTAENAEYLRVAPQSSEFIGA

Compound	IC50 [1, 6]	IC50 [2, 7]	IC50 [3, 8]	IC50 ([4]; IC50 WT (nM), 100 μM ATP)	IC50 [5, 9]	IC50 [1, 10]	IC50 [2, 11]	IC50 [3, 12]	IC50 [4, 13]	IC50 [5, 14]	IC50 [1, 15]	IC50 [2, 16]	IC50 [3, 17]	IC50 [4, 18]	IC50 [5, 19]	IC50 ([1]; ATP at Km, read-out: IC50 L858R/T790M/C797S (nM), Km ATP)	IC50 ([2]; ATP at Km, read-out: IC50 Del19/T790M/C797S (nM), Km ATP)	IC50 ([3]; ATP at Km, read-out: IC50 Del19/C797S (nM), Km ATP)	IC50 ([4]; ATP at Km, read-out: IC50 WT (nM), Km ATP)	IC50 ([5]; ATP at Km, read-out: IC50 L858R/C797S (nM), Km ATP)
Cn1cc(C#Cc2cnc(Nc3ccnc(-c4cnn(S(=O)(=O)C5CC5)c4)n3)cc2N2CCCC(O)C2)cn1 (centres unmarked) [Example 6, 1-(2-((2-(1-(Cyclopropylsulfonyl)-1H-pyrazol-4-yl)pyrimidin-4-yl)amino)-5-((1-methyl-1H-pyrazol-4-yl)ethynyl)pyridin-4-yl)piperidin-3-ol]	4.2 nM	0.5 nM	5.1 nM	6020 nM	24.1 nM															
Cn1cc(C#Cc2cnc(Nc3ccnc(-c4cnn(S(=O)(=O)C5CC5)c4)n3)cc2N[C@@H]2CCC[C@@H](O)C2)cn1 [Example 76, (1R,3R)-3-((2-((2-(1-(Cyclopropylsulfonyl)-1H-pyrazol-4-yl)pyrimidin-4-yl)amino)-5-((1-methyl-1H-pyrazol-4-yl)ethynyl)pyridin-4-yl)amino)cyclohexan-1-ol]	8.8 nM	4 nM	80.7 nM	> 10000 nM	2780 nM	2.2 nM	3.7 nM	51.9 nM	667 nM	22.1 nM										
CC1(CO)CCN(c2cc(Nc3ccnc(-c4cnn(S(=O)(=O)C5CC5)c4)n3)ncc2C#CC2(O)CCCOC2)CC1 (centres unmarked) [Example 357, 3-((6-((2-(1-(Cyclopropylsulfonyl)-1H-pyrazol-4-yl)pyrimidin-4-yl)amino)-4-(4-(hydroxymethyl)-4-methylpiperidin-1-yl)pyridin-3-yl)ethynyl)tetrahydro-2H-pyran-3-ol]	0.4 nM	0.3 nM	1.5 nM	4710 nM	14 nM						0.1 nM	0.2 nM	1.4 nM	9.2 nM	1.5 nM					
CC(C)(O)[C@H]1CC[C@@H](Nc2cc(Nc3ccnc(-c4cnn(S(=O)(=O)C5CC5)c4)n3)ncc2C#Cc2cnn(CC(F)F)c2)CC1 [Example 325, 2-((1s,4s)-4-((2-((2-(1-(Cyclopropylsulfonyl)-1H-pyrazol-4-yl)pyrimidin-4-yl)amino)-5-((1-(2,2-difluoroethyl)-1H-pyrazol-4-yl)ethynyl)pyridin-4-yl)amino)cyclohexyl)propan-2-ol]	2.1 nM	1.1 nM	6.9 nM	> 10000 nM	89.8 nM											0.8 nM	0.9 nM	6.2 nM	115 nM	16.3 nM
CN(C)CC1CCN(c2cc(Nc3ccnc(-c4cnn(S(=O)(=O)C5CC5)c4)n3)ncc2C#Cc2cnn(C)c2)CC1 [Example 295, 2-(1-(Cyclopropylsulfonyl)-1H-pyrazol-4-yl)-N-(4-(4-((dimethylamino)methyl)piperidin-1-yl)-5-((1-methyl-1H-pyrazol-4-yl)ethynyl)pyridin-2-yl)pyrimidin-4-amine]	2.4 nM	0.8 nM	9.9 nM	> 10000 nM	68.2 nM															
O=S(=O)(C1CC1)n1cc(-c2nccc(Nc3cc(N4CCCC(O)C4)c(C#Cc4cnn(CC(F)(F)F)c4)cn3)n2)cn1 (centres unmarked) [Example 343, 1-(2-((2-(1-(Cyclopropylsulfonyl)-1H-pyrazol-4-yl)pyrimidin-4-yl)amino)-5-((1-(2,2,2-trifluoroethyl)-1H-pyrazol-4-yl)ethynyl)pyridin-4-yl)piperidin-3-ol]	3.1 nM	1.9 nM	19.2 nM	> 10000 nM	68.1 nM						0.7 nM	2.6 nM	11.9 nM	55.5 nM	19.8 nM					
C[C@]1(O)CCCN(c2cc(Nc3ccnc(-c4cnn(S(=O)(=O)C5CC5)c4)n3)ncc2C#Cc2cnn(C(F)(F)F)c2)C1 [Example 448, (S)-1-(2-((2-(1-(Cyclopropylsulfonyl)-1H-pyrazol-4-yl)pyrimidin-4-yl)amino)-5-((1-(trifluoromethyl)-1H-pyrazol-4-yl)ethynyl)pyridin-4-yl)-3-methylpiperidin-3-ol]	6.1 nM	1.7 nM	44.7 nM	> 10000 nM	503 nM						1.2 nM	1 nM	27.7 nM	300 nM	5.8 nM					
O=S(=O)(C1CC1)n1cc(-c2nccc(Nc3cc(N4CCCC(O)C4)c(C#Cc4cnn(C5CCOCC5)c4)cn3)n2)cn1 (centres unmarked) [Example 99, 1-(2-((2-(1-(Cyclopropylsulfonyl)-1H-pyrazol-4-yl)pyrimidin-4-yl)amino)-5-((1-(tetrahydro-2H-pyran-4-yl)-1H-pyrazol-4-yl)ethynyl)pyridin-4-yl)piperidin-3-ol]	3 nM	0.7 nM	14 nM	> 10000 nM	58.1 nM	0.8 nM	0.7 nM	10.4 nM	41.7 nM	4.2 nM										
O=S(=O)(C1CC1)n1cc(-c2nccc(Nc3cc(N[C@H]4CCC[C@H](O)C4)c(C#Cc4cnn(C(F)(F)F)c4)cn3)n2)cn1 [Example 103, (1 S,3S)-3-((2-((2-(1-(Cyclopropylsulfonyl)-1H-pyrazol-4-yl)pyrimidin-4-yl)amino)-5-((1-(trifluoromethyl)-1H-pyrazol-4-yl)ethynyl)pyridin-4-yl)amino)cyclohexan-1-ol]	8.5 nM	3.5 nM	87.3 nM	> 10000 nM	1230 nM	2.8 nM	2.7 nM	66.8 nM	1070 nM	104 nM										
O=S(=O)(C1CC1)n1cc(-c2nccc(Nc3cc(N4CCCC(O)C4)c(C#Cc4ccc(N5CCOCC5)nc4)cn3)n2)cn1 (centres unmarked) [Example 227, 1-(2-((2-(1-(Cyclopropylsulfonyl)-1H-pyrazol-4-yl)pyrimidin-4-yl)amino)-5-((6-morpholinopyridin-3-yl)ethynyl)pyridin-4-yl)piperidin-3-ol]	18.3 nM	4.6 nM	94.7 nM	> 10000 nM	294 nM															
O=S(=O)(C1CC1)n1cc(-c2nccc(Nc3cc(NC4CCC(CO)CC4)c(C#CC4CCOC4C(F)(F)F)cn3)n2)cn1 [Example 416, ((1s,4s)-4-((2-((2-(1-(Cyclopropylsulfonyl)-1H-pyrazol-4-yl)pyrimidin-4-yl)amino)-5-(((2R)-2-(trifluoromethyl)tetrahydrofuran-3-yl)ethynyl)pyridin-4-yl)amino)cyclohexyl)methanol]	2.8 nM	2.7 nM	8.2 nM	> 10000 nM	165 nM						0.9 nM	2.6 nM	7.2 nM	84.5 nM	33.6 nM					
